Data on five compounds can be found in patent US6251903A, “Alkyl, azido, alkoxy, and fluoro-substituted and fused quinoxalinediones and the use thereof as glycine receptor antagonist” (priority 2000, dated 2001).

Entries after “also recorded” stand apart in the source; their conditions may differ. Where two headings read alike, the source gives them in different places.

Series [1] concerns glycine binding site of the NMDA receptor. The following applies: literature; cited from earlier work.
The subject of series [2] is dorsal horn nociceptive neurons. The following applies: literature; cited from earlier work.
The conditions of series [3]: literature; cited from earlier work.
Series [4] has as its target NMDA receptor glycine sites. Briefly: electrophysiological assay, cloned rat NMDA receptors expressed in Xenopus oocytes. It is filed as cell-based. Particulars: Table II; from electrophysiology using Xenopus oocytes. An excerpt:
(§1) The binding affinities of quinoxaline-2,3-diones at NMDA receptor glycine sites also were estimated by electrophysiological assays with either cloned rat NMDA receptors expressed in Xenopus oocytes, or non-NMDA receptors expressed in oocytes by whole rat brain poly(A)^+ RNA. […] For NMDA receptors Ki values were approximated by averaging values at three subtype combinations (NR1A/NR2A, NR1A/NR2B, and NR1A/NR2C).

A further series concerns the target glycine binding site (Rattus norvegicus, UniProt P35439). Briefly: affinity for the glycine binding site / glycine/NMDA receptor (Ki; method not stated).
From the text: as §1

Series [5] concerns mice. Description: anticonvulsant activity in maximum electroshock seizure (MES) experiments in mice. It is filed as in vivo, male Swiss/Webster mice. The following applies: for ED50 as an anticonvulsant in the MES experiment in mice: route not stated. On the procedure:
The seizure stimulus parameters were: 50 mA, 60 Hz, rectangular pulse, width 0.8 msec, duration 200 msec. Tonic hind limb extension observed after application of the electrical stimulus was recorded as occurrence of seizure. The drug was applied i.v. as an aqueous Tris (Tromethamine) solution.

Series [6] deals with mice. Briefly: formalin test for pain in Swiss Webster mice. Particulars: for antinociceptive effect in the formalin test: i.p., early and late phases; for time spent licking, early phase / time spent licking, late phase (15-50 min): mean ± s.e.m. It is filed as in vivo, male Swiss Webster mice. On the procedure:
The effects of the glycine receptor antagonists of the present invention on chronic pain can be evaluated as follows. Male Swiss/Webster mice weighing 25-35 grams are housed five to a cage with free access to food and water and are maintained on a 12 hour light cycle (light onset at 0800h). The glycine receptor antagonist is dissolved in DMSO at a concentration of 140 and 5-40 mg/mL, respectively. DMSO is used as vehicle control. All drugs=are injected intraperitoneally (1 μl/g). […] Mice are observed in a plexiglass cylinder, 25 cm in diameter and 30 cm in height. The plantar surface of one hindpaw is injected subcutaneously with 20 μl of 5% formalin. The degree of pain is determined by measuring the amount of time the animal spends licking the formalin-injected paw during the following time intervals: 0-5' (early phase); 5'-10', 10'-15' and 15'-50' (late phase). To test whether the glycine/excitatory amino acid antagonists prevent chronic pain in the test animals, vehicle (DMSO) or drugs dissolved in vehicle at doses of 1 mg/kg to 40 mg/kg are injected intraperitoneally 30 minutes prior to the formalin injection. For each dose of drug or vehicle control at least six animals are used.
Briefly, after a 60 minute accommodation period in plexiglass jars, mice were weighed and injected intraperitoneally (i.p.) with NDMQX (1-20 mg/kg; N=6-10 mice/dose). Controls were injected with DMSO (1 mL/kg, i.p.). Thirty min later, mice were injected with formalin (20 μl of 5% solution) just under the skin of the right hind paw, transferred to the plexiglass jars, and immediately observed for licking or biting of the injected paw for 1 hr. The amount of time that each mouse spent licking the injected paw was measured at 0-5 min (early phase) and 15-50 min (late phase).
In the formalin test, following a 1 hr accommodation period, mice were injected i.p. with NMCQX (1.00-10.00 mg/kg, N=7-13 mice/dose) or NDMQX (0.5-20.00 mg/kg, N=8-9 mice/dose). Control mice were injected with Tris (0.5 M) or Bis-Tris (0.2 M), respectively. Mice were then injected with formalin. […] The amount of time that each mouse spent licking and/or biting the injected paw was recorded for 1 hr.

Series [7] has as its system mice. Briefly: MES test with i.p. NMCQX or NDMQX (Example 51). It is filed as in vivo, Swiss Webster mice. The following applies: NMCQX 1.25-7.50 mg/kg, NDMQX 5.00-15.00 mg/kg. On the procedure:
In the MES test, mice were injected i.p. with NMCQX (1.25-7.50 mg/kg) or NDMQX (5.00-15.00 mg/kg). Control mice were injected with Tris (0.05 M) or Arginine (0.1 M), respectively. Seizures were then induced by applying a rectangular pulse, 50 mA, 60 pulses/sec, 0.8 msec pulse width, and 0.2 sec train length, at the time of the drugs' peak effect.

The next series concerns rats. Description: rat model of permanent focal cerebral ischemia, continuous intravenous infusion. The class given is in vivo, male Sprague-Dawley rats. The following applies: for reduction in cortical infarct volume: p<0.05; for neuroprotection: rat focal ischemia. On the procedure: Male Sprague-Dawley rats (290-320 g) were […] and maintained under anesthesia with ±2% of halothane. […] The common carotid arteries (CCA) were isolated, and a loose silk ligature Was placed around each CCA. A vertical skin incision was made between the left orbit and the auditory canal, posterior part of zygoma removed and small opening (2.0/2.5 mm) drilled dorsorostrally to the foramen ovale under constant saline irrigation. The dura was opened with a microsurgical hook and the brain gently retracted with a fine spatula to expose the bifurcation of the internal carotid artery and the middle cerebral artery. The ipsilateral CCA was ligated and the MCA coagulated from its origin to the olfactory tract Two hours after MCA occlusion, the clip from the contralateral CCA was removed.
NDMQX was dissolved in 0.1 M L-arginine and 5% glucose and infused as a slow 10 mg/kg i.v. bolus (immediately after MCA occlusion) followed by 7 mg/kg/h infusion for 22 hours.
Brains were sliced into 2 mm blocks and stained with tetrazolium red (2,3,5-triphenyl tetrazolium chloride). The areas of brain damage were assessed using an image analyzer (Image-1, Universal Imaging Corporation, PA) to determine the volume of cortical and subcortical infarction by integration of areas and the distance between each level.
For the drug administration, the NMCQX was dissolved in 0.05 Tris and 5% glucose. It was infused as a slow 2 mg/kg i.v. bolus (immediately after MCA occlusion) followed by 1.4 mg/kg/h infusion for 22 hours.

A further series relates to DBA-2 mice. Description: audiogenic seizure model in DBA-2 mice. It is filed as in vivo. The following applies: Mus musculus, ip, 0.5 h; i.p. injection. An excerpt:
The anticonvulsant activity of the glycine and excitatory amino acid antagonists can be assessed in the audiogenic seizure model in DBA-2 mice as follows. DBA-2 mice can be obtained from Jackson Laboratories, Bar Harbor, Maine. These mice at an age of <27 days develop a tonic seizure within 5-10 seconds and die when they are exposed to a sound of 14 kHz (sinus wave) at 110 dB (Lonsdale, D., Dev. Pharmacol. Ther. 4:28 (1982)). […] 21 day old DBA-2 mice are used for all experiments. Compounds are given intraperitoneally in either saline, DMSO, or polyethyleneglycol-400. Appropriate solvent controls are included in each experiment. Dose response curves are constructed by giving increasing doses of drug from 1 mg/kg to 100 mg/kg. Each dose group (or solvent control) consists of at least six animals.

Series [8] has as its system mice. Briefly: anticonvulsant activity in maximum electroshock seizure (MES) experiments in mice. The class given is in vivo, male Swiss/Webster mice. The following applies: Mus musculus, ip; Table III; i.p. injection.
For the next series, the target named is PCP receptor. The following applies: Wong et al. 1986; cited from earlier work.
For a further series, the system named is neurons. The following applies: literature; cited from earlier work.
Series [9] has as its system mice. Description: morphine tolerance in the formalin test (8 days chronic). The class given is in vivo, male Swiss Webster mice. On the procedure: A modification of a previously described method was used (Hunskaar et al., J. Neurosci. Meth. 14:69-76 (1985)). Briefly, mice were placed in Plexiglas jars for at least 1 hr for accommodation to the experimental condition. Formalin (20 μl of 5% formaldehyde solution in saline) was injected into the dorsal surface of the right hind paw using a microsyringe (Hamilton Co., Reno, Nev.) with a 27-gauge needle. Mice were then transferred to the Plexiglas jars and immediately observed for licking or biting of the injected paw for 1 hr. The amount of time that each mouse spent licking or biting the injected paw was recorded for every 5-min period for a 1 hr observation period.
[…] Mice were immediately, within a minute, injected with either saline or morphine (20 mg/kg, s.c.). On day 9, mice were weighed and after a 1-hr accommodation period-injected with morphine (4 mg/kg, s.c.). Thirty min later, all mice were tested in the formalin test (see above).

Series [10] deals with mice. Description: effect of chronic NDMQX on morphine antinociception in the formalin test. Particulars: 40 mg/kg i.p., 8 days. The class given is in vivo, male Swiss Webster mice.
A short description of series [11]: penetration of the blood/brain barrier, access to the central nervous system. The class given is in vivo. The following applies: inferred from Ki and MES ED50.

In the case of `O=C(O)c1cc(O)c2ccc(Cl)cc2n1` [7-Cl-kynurenic acid], in [1], the “glycine site antagonism or affinity (words)” value was “relatively high receptor binding affinity in vitro”. Also, the “blockade of "wind up"” value in [2] is “blocked the "wind up" phenomenon”. Besides, the “penetration of the blood/brain barrier (words)” value in [3] is on record as “cannot penetrate the blood/brain barrier”.

Take `Cc1c(Cl)cc2[nH]c(=O)c(=O)[nH]c2c1[N+](=O)[O-]` [NMCQX, 7-Chloro-6-methyl-5-nitro-1,4-dihydroquinoxaline-2,3-dione]: the Ki (in series [4]; at glycine binding site) was 5 nM throughout. For the same compound, the “times better than 6,7-dichloro-5-nitro-1,4-dihydroquinoxaline-2,3-dione as anticonvulsant” value in the series with mice [5] (MES ED50 ratio) is on record as 4-5 times. Moreover, the “ED50 as an anticonvulsant in the MES experiment in mice” value in the series on mice [5] came out at 1 mg/kg. Moreover, the “antinociceptive effect in the formalin test” value in the series on mice [6] was “dose-dependent antinociceptive effect in both phases”. For the same compound, the “protection from electroshock seizures” value with mice [7] is listed as “dose-dependently protected mice from generalized clonic-tonic seizures”. The “reduction in cortical infarct volume” value in the series on rats (2 mg/kg i.v. bolus then 1.4 mg/kg/h for 22 hours) came to 75%. Also, the “neuroprotection” value in the series with rats is recorded as “significant neuroprotection”.

As to `O=c1[nH]c2c(F)c(F)c(F)c(F)c2[nH]c1=O` [F F F F, 5,6,7,8-tetrafluoro-1,4-dihydroquinoxaline-2,3-dione], the inhibition constant (Ki) at glycine binding site (Table III, read-out: Ki) is 2190 nM. For the same compound, the ED50 is 9 mg/kg in the series on DBA-2 mice and 20 mg/kg with mice [8].

In the case of `C[C@]12N[C@H](Cc3ccccc31)c1ccccc12` [MK801], on PCP receptor, the Kd is ~3 nM. Also, the “neuroprotective efficacy” value in the series with neurons is “have neuroprotective efficacy both in vitro and in vivo”.

Consider `Cc1cc2nc(O)c(O)nc2c([N+](=O)[O-])c1C` [NDMQX, 6,7-Dimethyl-5-nitro-1,4-dihydroquinoxaline-2,3-dione], for which the Ki (in series [4]; at glycine binding site) was 43 nM in each case. The “times less active than 6,7-dichloro-5-nitro-1,4-dihydroquinoxaline-2,3-dione at the glycine/NMDA receptor” value on glycine binding site (from Ki) is reported as “about 10 times”. The “ED50 as an anticonvulsant in the MES experiment in mice” value in the series with mice [5] lay in the range of 4 to 5 mg/kg. For the same compound, the “time spent licking, early phase” value amounted to 72.57 ± 14.2 sec per 5 min period in the series with mice [6] (1.0 mg/kg i.p.); 78.50 ± 10.0 sec per 5 min period in the series on mice [6] (2.5 mg/kg i.p.); 32.83 ± 8.28 sec per 5 min period in the series on mice [6] (5 mg/kg i.p.); 29.17 ± 14.9 sec per 5 min period in the series with mice [6] (10 mg/kg i.p.); 6.83 ± 1.85 sec per 5 min period in the series with mice [6] (15 mg/kg i.p.); 4.33 ± 2.85 sec per 5 min period with mice [6] (20 mg/kg i.p.). The “time spent licking, late phase (15-50 min)” value in the series on mice [6] (1.0 mg/kg i.p.) was 37.59 ± 5.37 sec per 5 min period; in the series on mice [6] (2.5 mg/kg i.p.), 26.38 ± 5.43 sec per 5 min period; in the series on mice [6] (5 mg/kg i.p.), 10.24 ± 2.66 sec per 5 min period; in the series with mice [6] (10 mg/kg i.p.), 10.19 ± 2.44 sec per 5 min period; with mice [6] (15 mg/kg i.p.), 3.19 ± 1.37 sec per 5 min period; in the series with mice [6] (20 mg/kg i.p.), 0.05 ± 0.05 sec per 5 min period. In the series with mice [6], the “antinociceptive effect in the formalin test” value is recorded as “attenuated the mean time spent licking in a dose-dependent manner in both phases; also recorded: significant analgesic effect in both phases; also recorded: dose-dependent antinociceptive effect in both phases”. Besides, the “protection from electroshock seizures” value with mice [7] was “dose-dependently protected mice from generalized clonic-tonic seizures”. The “effect on morphine tolerance” value was “no effect on morphine tolerance” in the series with mice [9] (2 mg/kg), “attenuated” in the series with mice [9] (20 mg/kg) and “completely abolished” in the series on mice [9] (40 mg/kg). The “morphine tolerance (words, overall)” value in the series with mice [9] (8 days, early and late phases) is “Tolerance did not develop in mice treated with NDMQX followed by morphine; also recorded: blocked morphine tolerance in both phases of the formalin test”. Further, the “effect on morphine-induced antinociception” value in the series on mice [10] was “did not alter the antinociceptive effect of morphine; also recorded: not due to potentiation of morphine-induced antinociception”. For the same compound, the “reduction in cortical infarct volume” value with rats (10 mg/kg i.v. bolus then 7 mg/kg/h for 22 hours) is 71%. The “neuroprotection” value with rats was “significant neuroprotection”. Also, the “times better in crossing the blood brain barrier than 6,7-dichloro-5-nitro-1,4-dihydroquinoxaline-2,3-dione” value in [11] is listed as “about 10 times”.
